Consider eight compounds from PubChem BioAssay (NCI).

The structures appear in SMILES notation.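 These data come from cells grown in 96-well plates and exposed to compound for 48 hours at five concentrations. TGI: concentration producing complete growth inhibition.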

Some test systems named below: 786-0 renal; A498 renal; A549 NSCLC; BT-549 breast; HL-60(TB) leukemia; K-562 leukemia; MCF7 breast; NCI-H226 lung; NCI-H23 lung; OVCAR-3 ovarian; OVCAR-4 ovarian; SK-OV-3 ovarian; SR leukemia; UACC-257 melanoma; UO-31 renal.
Experiment in all cases: NCI anticancer screen, dose series, 48 h

In the case of `CCOP1(=O)CC(C)=C(Cl)C(O)C1` (stereo not given), the TGI in the assay with 786-0 renal, with A498 renal, in the assay with A549 NSCLC, in the assay on BT-549 breast, in the assay with HL-60(TB) leukemia and in the assay with K-562 leukemia was over 100 µM each time. The TGI with MCF7 breast, in the assay on NCI-H226 lung, in the assay with NCI-H23 lung, with OVCAR-3 ovarian, in the assay with OVCAR-4 ovarian and in the assay with SK-OV-3 ovarian was over 100 µM throughout. The TGI in the assay on SR leukemia, in the assay with UACC-257 melanoma and in the assay on UO-31 renal was over 100 µM each time.

As to `Clc1cc(Cl)cc(N=C/C=C/Nc2cc(Cl)cc(Cl)c2)c1`, the TGI in the assay with 786-0 renal is 31.4 µM; in the assay with A498 renal it was 57.3 µM; in the assay on A549 NSCLC, 43.1 µM; in the assay with BT-549 breast, over 100 µM; in the assay on HL-60(TB) leukemia, 49.7 µM; with K-562 leukemia, 66.2 µM. In addition, the TGI in the assay with MCF7 breast was 27.2 µM; with NCI-H226 lung, 32.8 µM; with NCI-H23 lung it was 30.6 µM; in the assay on OVCAR-3 ovarian it was 27.7 µM; with OVCAR-4 ovarian, 32.7 µM; in the assay on SK-OV-3 ovarian it was 89 µM. The TGI with SR leukemia is 86.4 µM; in the assay on UACC-257 melanoma, over 100 µM; in the assay on UO-31 renal it was 71.7 µM.

In the case of `O=[N+]([O-])c1ccc(C(=S)Nc2ccccc2)o1`, the TGI in the assay with 786-0 renal was found to be 6.19 µM; in the assay with A498 renal, 32.2 µM; in the assay on A549 NSCLC it was 22.4 µM; with BT-549 breast it was 14.1 µM; in the assay with HL-60(TB) leukemia, 6.35 µM; in the assay with K-562 leukemia it was 6.28 µM. For the same compound, the TGI with MCF7 breast stood at 5.57 µM; in the assay on NCI-H226 lung it was 15 µM; in the assay on NCI-H23 lung, 12.4 µM; in the assay on OVCAR-3 ovarian it was 6.38 µM; with OVCAR-4 ovarian, 6.47 µM; in the assay on SK-OV-3 ovarian, 24 µM. Also, the values for the TGI in the assay with SR leukemia, in the assay on UACC-257 melanoma and in the assay on UO-31 renal were 10 µM, 8.82 µM and 5.73 µM, respectively.

As to `CC1(C)OC(=S)N(c2ccccc2)C12C=Cc1ccccc1O2` (stereo not given), the TGI in the assay on 786-0 renal is over 100 µM; in the assay with A498 renal, over 100 µM; in the assay with A549 NSCLC, over 100 µM; with BT-549 breast, over 100 µM; with HL-60(TB) leukemia, 52.4 µM; in the assay on K-562 leukemia it was over 100 µM. Further, the TGI was over 100 µM with MCF7 breast; over 100 µM in the assay with NCI-H226 lung; over 100 µM in the assay with NCI-H23 lung; over 100 µM in the assay with OVCAR-3 ovarian; over 100 µM in the assay on OVCAR-4 ovarian; 73 µM in the assay on SK-OV-3 ovarian. In addition, the TGI with SR leukemia was 37.2 µM; with UACC-257 melanoma it was over 100 µM; with UO-31 renal it was over 100 µM.

As to `CC(=O)OCC(=O)O[C@@H]1[C@H]2[C@@H](OC(=O)c3ccccc3)[C@@H](C)C[C@]2(O)[C@H](OC(C)=O)[C@@]2(C)C(OC(C)=O)[C@]1(OC(C)=O)C[C@H]1C(=O)C(C)(C)C[C@@H]12` (stereo not given in full), the TGI with 786-0 renal, in the assay with A498 renal, with A549 NSCLC, with BT-549 breast, in the assay with HL-60(TB) leukemia and in the assay with K-562 leukemia was over 50 µM each time. The TGI in the assay on MCF7 breast, in the assay on NCI-H226 lung, in the assay with NCI-H23 lung, in the assay with OVCAR-3 ovarian, with OVCAR-4 ovarian and in the assay on SK-OV-3 ovarian was over 50 µM throughout. Further, the TGI in the assay on SR leukemia, in the assay with UACC-257 melanoma and with UO-31 renal was over 50 µM throughout.

Regarding `COc1cc2c(c(O)c1OC)C(=O)[C@@H]1CCC(=O)N1C2`, the TGI with 786-0 renal, in the assay on A498 renal, in the assay on A549 NSCLC, with BT-549 breast, in the assay on HL-60(TB) leukemia and with K-562 leukemia was over 100 µM in each case. For the same compound, the TGI in the assay with MCF7 breast, in the assay with NCI-H226 lung, in the assay with NCI-H23 lung, in the assay on OVCAR-3 ovarian, in the assay with OVCAR-4 ovarian and in the assay with SK-OV-3 ovarian was over 100 µM throughout. Further, the TGI in the assay with SR leukemia, in the assay with UACC-257 melanoma and with UO-31 renal was over 100 µM each time.

For `c1cc2nnc1SCCCSc1ccc(nn1)SCCCS2`, the TGI with 786-0 renal was over 100 µM; with A498 renal it was over 100 µM; with A549 NSCLC, over 100 µM; in the assay with BT-549 breast it was over 100 µM; with HL-60(TB) leukemia, over 92.4 µM; with K-562 leukemia, over 100 µM. Besides, the TGI with MCF7 breast is over 100 µM; with NCI-H226 lung, over 94.1 µM; with NCI-H23 lung, over 100 µM; in the assay with OVCAR-3 ovarian, over 74.1 µM; in the assay on OVCAR-4 ovarian, over 100 µM; with SK-OV-3 ovarian, 92.3 µM. For the same compound, the TGI with SR leukemia was over 100 µM; in the assay on UACC-257 melanoma, over 71.6 µM; in the assay on UO-31 renal, over 100 µM.

For `c1ccc2oc(-c3ccc(-c4nc5ccccc5o4)c4c3CC4)nc2c1`, the TGI in the assay on 786-0 renal, in the assay with A498 renal, in the assay on A549 NSCLC, with BT-549 breast, in the assay on HL-60(TB) leukemia and in the assay with K-562 leukemia was over 100 µM throughout. The TGI with MCF7 breast, with NCI-H226 lung, in the assay on NCI-H23 lung, in the assay with OVCAR-3 ovarian, in the assay with OVCAR-4 ovarian and in the assay on SK-OV-3 ovarian was over 100 µM in each case. For the same compound, the TGI in the assay on SR leukemia, with UACC-257 melanoma and in the assay on UO-31 renal was over 100 µM throughout.
